This passage reports TGI and GI50 results from PubChem BioAssay (NCI).

Among the test systems are NCI-H460 lung; SK-MEL-28 melanoma; NCI-H23 lung; NCI-H522 lung; RXF 393 renal; HCC-2998 colon; SW-620 colon; UO-31 renal; K-562 leukemia; RPMI-8226 leukemia.
Assay in all cases: NCI-60 cell line screen, 48 h

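Briefly, cells in 96-well plates were exposed to five compound concentrations for 48 h, and endpoints were estimated by linear interpolation. The concentration for 50% growth inhibition is given as GI50. TGI denotes the concentration required for complete inhibition of growth.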 A value given as a limit tells only on which side of the number the result lay.

On to `N#CCC(=O)N/N=C1\C(=O)N(c2ccc(Cl)cc2)C(=O)C(=O)C1c1nc2ccccc2o1` (stereo not given), for which the TGI with NCI-H460 lung, in the assay on SK-MEL-28 melanoma, with NCI-H23 lung, with NCI-H522 lung, with RXF 393 renal and in the assay on HCC-2998 colon was above 100 µM each time. Further, the TGI with SW-620 colon and with UO-31 renal was above 100 µM in each case.
In the case of `CCOC(=O)C1=C(C)NC(=O)NC1c1coc2cc(C)cc(C)c2c1=O` (stereo not given), the TGI in the assay with NCI-H460 lung was above 100 µM; in the assay with K-562 leukemia, above 100 µM; in the assay with SK-MEL-28 melanoma, above 100 µM; in the assay on NCI-H23 lung, above 100 µM; in the assay on NCI-H522 lung, 14.5 µM; in the assay on RXF 393 renal, above 100 µM. The TGI in the assay with RPMI-8226 leukemia, in the assay with SW-620 colon and in the assay with UO-31 renal was above 100 µM each time.
With `Cc1cc(NS(=O)(=O)c2ccc(NC(=O)c3cccc4c(Nc5ccc(S(=O)(=O)Nc6cc(C)on6)cc5)c5ccccc5nc34)cc2)no1`, the TGI is above 100 µM in the assay on NCI-H460 lung; above 100 µM with K-562 leukemia; above 100 µM in the assay with SK-MEL-28 melanoma; above 100 µM with NCI-H23 lung; 51.7 µM in the assay on NCI-H522 lung; 61.5 µM in the assay on RXF 393 renal. In addition, the TGI in the assay with RPMI-8226 leukemia, with SW-620 colon and in the assay on UO-31 renal was above 100 µM each time.
Take `CN1c2ccccc2S(=O)(=O)n2c(COc3ccc(Cl)cc3)nnc21`: the TGI in the assay on NCI-H460 lung, in the assay on K-562 leukemia, with SK-MEL-28 melanoma, with NCI-H23 lung, in the assay with NCI-H522 lung and in the assay on RXF 393 renal was above 100 µM throughout. For the same compound, the TGI in the assay on HCC-2998 colon, with SW-620 colon and with UO-31 renal was above 100 µM each time.
In the case of `CC1(C)CC2C=C(C=O)C3(C=O)CC3(C)C2C1` (stereo not given), the TGI amounted to 10.6 µM with NCI-H460 lung; 4.19 µM in the assay on SK-MEL-28 melanoma; 3.99 µM in the assay with NCI-H23 lung; 2.51 µM in the assay on NCI-H522 lung; 3.41 µM with RXF 393 renal; 3.95 µM in the assay with RPMI-8226 leukemia. For the same compound, the values for the TGI in the assay on HCC-2998 colon, in the assay with SW-620 colon and with UO-31 renal were 18.2 µM, 2.4 µM and 3.29 µM, respectively.
With `COc1cccc(NC(=O)CC(=O)N2NC(C)C(N=Nc3cccc(C(=O)O)c3)C2=O)c1` (stereo not given), the TGI in the assay with NCI-H460 lung, in the assay on K-562 leukemia, with SK-MEL-28 melanoma, in the assay on NCI-H23 lung, in the assay on NCI-H522 lung and in the assay on RPMI-8226 leukemia was above 100 µM in each case. In addition, the TGI in the assay with HCC-2998 colon, in the assay with SW-620 colon and in the assay with UO-31 renal was above 100 µM in each case.
As for `CC1=C([Se]CC(OC(=O)[C@@H](CO)NC(=O)OC(C)(C)C)C(=O)NC(C)(C)C)C(=O)c2ccccc2C1=O` (stereo not given in full), the GI50 was 0.456 µM in the assay on NCI-H460 lung; 2.06 µM with SK-MEL-28 melanoma; 1.49 µM with NCI-H23 lung; 1.6 µM with NCI-H522 lung; 1.86 µM with RXF 393 renal; 2.74 µM in the assay on RPMI-8226 leukemia. For the same compound, the figures for the GI50 with HCC-2998 colon, in the assay with SW-620 colon and with UO-31 renal were 1.82 µM, 1.77 µM and 1.45 µM, respectively. For the same compound, the TGI in the assay with NCI-H460 lung came out at 1.8 µM; in the assay on SK-MEL-28 melanoma it was 3.55 µM; in the assay on NCI-H23 lung it was 3.2 µM; in the assay with NCI-H522 lung, 3.14 µM; in the assay with RXF 393 renal it was 3.28 µM; with RPMI-8226 leukemia, 8.91 µM. Besides, the TGI with HCC-2998 colon came to 3.23 µM; with SW-620 colon, 3.33 µM; in the assay on UO-31 renal, 2.94 µM.
Regarding `CCN(CC)CCNC(=O)c1cccc2cc3ccccc3nc12`, the TGI was 11.6 µM in the assay with NCI-H460 lung; above 100 µM with K-562 leukemia; 23.1 µM in the assay on SK-MEL-28 melanoma; 10.7 µM with RXF 393 renal; 25.9 µM with HCC-2998 colon; above 100 µM with SW-620 colon. In the assay on UO-31 renal, this compound gave a TGI of 22.1 µM.
Consider `O=C(O)C#CCO`, for which the TGI with NCI-H460 lung, with K-562 leukemia, in the assay on SK-MEL-28 melanoma, in the assay on NCI-H23 lung, in the assay on NCI-H522 lung and in the assay on RXF 393 renal was above 100 µM each time. Further, the TGI with RPMI-8226 leukemia, in the assay on SW-620 colon and with UO-31 renal was above 100 µM in each case.
Take `NCC(NC(=O)OCc1ccccc1)C(=O)O` (stereo not given): the TGI with NCI-H460 lung, in the assay on K-562 leukemia, with SK-MEL-28 melanoma, with NCI-H23 lung, with NCI-H522 lung and with RPMI-8226 leukemia was above 50 µM throughout. Besides, the TGI with HCC-2998 colon, in the assay with SW-620 colon and in the assay on UO-31 renal was above 50 µM throughout.
Turning to `CCC1CC(=O)N(SCC(N)C(=O)O)C1=O` (stereo not given), the TGI in the assay on NCI-H460 lung, in the assay with K-562 leukemia, in the assay on SK-MEL-28 melanoma, in the assay with NCI-H23 lung, with NCI-H522 lung and with RXF 393 renal was above 100 µM in each case. The TGI in the assay with RPMI-8226 leukemia, with SW-620 colon and in the assay on UO-31 renal was above 100 µM each time.
In the case of `Cc1cc(C(=O)N2CCN(Cc3ccccc3)CC2)c(C)o1`, the TGI with NCI-H460 lung, in the assay on K-562 leukemia, with SK-MEL-28 melanoma, in the assay on NCI-H23 lung, with NCI-H522 lung and in the assay with RPMI-8226 leukemia was above 100 µM throughout. In addition, the TGI in the assay with HCC-2998 colon, with SW-620 colon and in the assay with UO-31 renal was above 100 µM each time.
Consider `CN(c1ccccc1)C1C(=O)N(c2ccccc2)C1/C=C/c1ccccc1` (stereo not given), for which the TGI with NCI-H460 lung, with SK-MEL-28 melanoma, with NCI-H23 lung, in the assay on NCI-H522 lung, in the assay on RXF 393 renal and in the assay on RPMI-8226 leukemia was above 100 µM throughout. For the same compound, the TGI with HCC-2998 colon, in the assay on SW-620 colon and in the assay with UO-31 renal was above 100 µM each time.
Take `COc1ccc(C2=C(c3cc(OC)c(OC)c(OC)c3)C(=O)CC2)cc1`: the GI50 was 0.224 µM in the assay with NCI-H460 lung; 0.0449 µM in the assay on K-562 leukemia; 0.489 µM with SK-MEL-28 melanoma; 0.313 µM in the assay with NCI-H23 lung; 0.0671 µM with NCI-H522 lung; 0.255 µM in the assay on RPMI-8226 leukemia. The results for the GI50 with HCC-2998 colon, in the assay with SW-620 colon and in the assay on UO-31 renal were 0.244 µM, 0.082 µM and 3.75 µM, respectively. Besides, the TGI in the assay with K-562 leukemia was above 100 µM; in the assay on SK-MEL-28 melanoma it was above 100 µM; in the assay on NCI-H23 lung, above 100 µM; in the assay on NCI-H522 lung it was 2.84 µM; in the assay on RPMI-8226 leukemia, 7 µM; in the assay with HCC-2998 colon, 18.2 µM. The TGI in the assay with SW-620 colon and in the assay with UO-31 renal was above 100 µM each time.
